Active and inactive are the calls of the source.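 Rule for the calls: active = lipid-stain IC50 at or below a set limit, with nuclear-stain toxicity IC50 at least five times higher; inactive = the rest.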
How the values were obtained:
DAPI = test: triacylglycerol accumulation inhibitor potency, dose response, cell-based, panel, Nile Red and DAPI fluorescence, H9c2 (AID 651630); details: H9c2 cells, DAPI nuclear fluorescence (cytotoxicity counter-readout), oleic acid;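 note: cells exposed to compound overnight before fixation and staining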
TAG = test: as above; details: H9c2 cells, Nile Red TAG fluorescence, oleic acid

Structure (SMILES)	IC50 cytotoxicity (DAPI nuclear signal decrease) (DAPI; mean of runs)	IC50 cytotoxicity (DAPI nuclear signal decrease) (DAPI; run 1) [µM]	IC50 cytotoxicity (DAPI nuclear signal decrease) (DAPI; run 2) [µM]	IC50 (TAG; mean of runs)	IC50 (TAG; run 1) [µM]	IC50 (TAG; run 2) [µM]
O=C(Nc1ccc(-c2csc(Nc3ccc(Cl)cc3)n2)cc1)c1cc([N+](=O)[O-])cc(C(F)(F)F)c1	> 25 µM (inactive)	> 25	> 25	8.54 µM	6.55	10.5
CN(Cc1ccc(Cl)cc1)C(=O)CCl	> 25 µM (inactive)	> 25	> 25	> 25 µM (inactive)	> 25	> 25
COc1ccc(-c2cc(C(F)F)n3ncc(C(=O)Nc4cccc(S(=O)(=O)N5CCOCC5)c4)c3n2)cc1	> 25 µM (inactive)	> 25	> 25	13.9 µM	17.5	10.4
CCc1ccc(/C=N/NC(=O)c2cc(C3CC3)nc3ccc(Br)cc23)s1	> 25 µM (inactive)	> 25	> 25	> 25 µM (inactive)	> 25	> 25
CCOC(=O)c1cc(-c2ccccc2)sc1NC(=O)C(C)N1C(=O)NC(C)(c2ccc(Cl)cc2)C1=O (stereo not given)	> 25 µM (inactive)	> 25	> 25	5.58 µM	5.07	6.09
COc1ccccc1C1C2=C(COC2=O)Nc2cc3c(cc21)OCO3 (stereo not given)	> 25 µM (inactive)	> 25	> 25	–	< 0.78	> 25
CCN(CC)S(=O)(=O)c1ccc(N2CCOCC2)c(NC(=O)c2[nH]c(C)c(C(C)=O)c2C)c1	> 25 µM (inactive)	> 25	> 25	7 µM	6.05	7.95
Cc1ccccc1NC(=O)CSc1nc2ccc(Nc3nc(N4CCOCC4)nc(N4CCOCC4)n3)cc2s1	> 25 µM (inactive)	> 25	> 25	10.7 µM	10.6	10.8
COc1cc(C2C3=C(COC3=O)Oc3cc4c(cc32)OCO4)ccc1O (stereo not given)	> 25 µM (inactive)	> 25	> 25	15.6 µM (inactive)	14.9	16.2
COc1ccc(C(C(=O)NC(C)(C)C)N(Cc2cccs2)C(=O)CCC(=O)Nc2cc(C)on2)cc1 (stereo not given)	> 25 µM (inactive)	> 25	> 25	13.6 µM	12.7	14.4
CCOC(=O)c1c(NC(C)=O)sc2c(OCC(O)CN(CC)CC)c(Br)ccc12 (stereo not given)	> 25 µM (inactive)	> 25	> 25	–	> 25	22.1
COC(=O)[C@@]1(Cc2ccc(OC)cc2)[C@@H]2C(=CC(=O)[C@H]2CC(=O)C(=O)N2CCCC2)CN1C(=O)c1ccccc1	–	21	> 25	> 25 µM (inactive)	> 25	> 25
Clc1cccc(Nc2nc(-c3ccncc3)nc3ccccc23)c1	> 25 µM (inactive)	> 25	> 25	–	18.9	> 25
CCOc1cc(C(=O)N/N=C/c2cn(-c3ccccc3)nc2-c2cc3ccccc3o2)cc(OCC)c1OCC	> 25 µM (inactive)	> 25	> 25	10.2 µM	9.28	11.2
COc1cc(NC(=O)Nc2nc(C(N)Cc3ccc(C(F)(F)F)cc3)cs2)cc(OC)c1OC (stereo not given)	–	24.9	> 25	6.47 µM	7.7	5.24
CC1CC2(C)Oc3ccccc3CC2C(C)C1CNCCCN(C)C (stereo not given)	18.9 µM (inactive)	18.4	19.5	> 25 µM (inactive)	> 25	> 25
CN1N=C(N)c2cn(C3OC(COP(=O)(O)O)C(O)C3O)c3ncnc1c23 (stereo not given)	7.78 µM (inactive)	6.76	8.79	12.2 µM	11.1	13.4

Structure (SMILES)	IC50 cytotoxicity (DAPI nuclear signal decrease) (DAPI; mean of runs)	IC50 cytotoxicity (DAPI nuclear signal decrease) (DAPI; run 1) [µM]	IC50 cytotoxicity (DAPI nuclear signal decrease) (DAPI; run 2) [µM]	IC50 (TAG; mean of runs)	IC50 (TAG; run 1) [µM]	IC50 (TAG; run 2) [µM]
CS(=O)(=O)c1ccc(C(=O)OCC(=O)N2CCOCC2)cc1[N+](=O)[O-]	> 25 µM (inactive)	> 25	> 25	> 25 µM (inactive)	> 25	> 25
N#C/C(=C\Nc1ccc2cn[nH]c2c1)c1nc(-c2ccc(Cl)cc2)cs1	17.8 µM (inactive)	23.7	12	11.1 µM	8.39	13.8
Clc1cccc(Nc2nc(-c3ccncc3)cs2)c1	> 25 µM (inactive)	> 25	> 25	> 25 µM (inactive)	> 25	> 25
CC(CC(=O)Nc1ccc2c(c1)c(=O)n(C)n2-c1ccc2ccccc2c1)C(F)(F)F (stereo not given)	> 25 µM (inactive)	> 25	> 25	> 25 µM (inactive)	> 25	> 25
CCOc1cc(N2CCOCC2)c(OCC)cc1NC(=O)CC12CC3CC(CC(C3)C1)C2	> 25 µM (inactive)	> 25	> 25	–	22.4	> 25
COc1ccc(CNC(=O)C2CCN(c3nc(-c4ccccc4)nc4c3CCC4)CC2)cc1	> 25 µM (inactive)	> 25	> 25	13.8 µM	11.5	16.1
O=C(C[C@H]1C[C@H](C(=O)N2CCCCC2)[C@@]2(CCc3ccccc3)c3[nH]c4ccc(Cl)cc4c3CCN2C1=O)NCc1cccc(C(F)(F)F)c1	–	> 25	> 25	3.78 µM	2.76	4.8
Oc1ccc(C[C@H]2CNC(=S)N2CC2CCCN2C[C@H](Cc2ccc(O)cc2)N2C[C@H](Cc3ccc(O)cc3)N(CC3CCCCC3)C2=S)cc1 (stereo not given in full)	> 25 µM (inactive)	> 25	> 25	9.34 µM	8.74	9.95
COc1ccccc1-c1cc(C(F)(F)F)nc(S(=O)(=O)CCCC(=O)NC(C)C)n1	18.4 µM (inactive)	19.9	17	11.2 µM	13.5	8.8
O=C(NC1CCCCC1)C(c1ccccc1)N(Cc1ccc2c(c1)OCO2)C(=O)c1cnsn1 (stereo not given)	> 25 µM (inactive)	> 25	> 25	18.7 µM (inactive)	17.2	20.2
CC(C)(C)OC(=O)[C@H](Cc1ccccc1)NC(=O)c1ncn2c1c(=O)[nH]c1ccc(Br)cc12	> 25 µM (inactive)	> 25	> 25	11.8 µM	12	11.6
CCCCCCN(C(=O)CCCCCN1C(=O)NC(c2ccc([N+](=O)[O-])cc2)C(C(=O)OCc2ccccc2)=C1C)C(C(=O)NCCCC)C1CCCCC1 (stereo not given)	> 25 µM (inactive)	> 25	> 25	5.66 µM	3.7	7.62
Cc1nn(-c2ccccc2)c2c1CC(=O)Nc1ccccc1-2	> 25 µM (inactive)	> 25	> 25	8.97 µM	7.74	10.2
CCOc1ccc(C2=Nc3ccccc3C(c3ccc(N4CCOCC4)cc3)=NN2)cc1	> 25 µM (inactive)	> 25	> 25	–	> 25	14.4
COc1cc(C(CCN2CCCC(C)C2)c2c(OC)cc(OC)c3c(-c4ccccc4)cc(=O)oc23)cc(OC)c1OC (stereo not given)	> 25 µM (inactive)	> 25	> 25	14.1 µM	14.8	13.5
O=C(Cc1n[nH]c(=O)c2ccccc12)OCC(=O)c1ccc2c(c1)OCCO2	> 25 µM (inactive)	> 25	> 25	> 25 µM (inactive)	> 25	> 25

From PubChem BioAssay AID651630 (Sanford-Burnham Center for Chemical Genomics, 2012)
